Test systems include AU565; BT474; BT549; HCC1143; HCC1395; HCC202; MCF10A; PDX1258; PDXHCI002; SUM1315; SUM190PT; SUM44PE; UACC812.
What all share (experiment): area over the GR curve, 72 h; higher = more effect;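 note: Dye Drop or Deep Dye Drop imaging of viable cells in 384-well plates (Hoechst nuclei, LIVE/DEAD dye), nine half-log doses, GR normalized to DMSO controls and time-zero plates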

`COc1cc2nccc(Oc3ccc(NC(=O)C4(C(=O)Nc5ccc(F)cc5)CC4)cc3)c2cc1OC` [Cabozantinib] (max 10 µM): the “area over the GR curve” value in the test with AU565 was -0.0067 GR; with BT474, -0.109 GR; in the test on BT549, 0.0035 GR; with HCC1143 it was 0.102 GR; with HCC1395 it was 0.0651 GR; in the test with HCC202, -0.0223 GR. The “area over the GR curve” value in the test on MCF10A is -0.0114 GR; in the test on PDX1258 it was 0.0204 GR; in the test with PDXHCI002, 0.0362 GR; with SUM1315 it was 0.105 GR; in the test with SUM190PT it was 0.138 GR; with SUM44PE it was 0.0196 GR. Moreover, in the test on UACC812, the “area over the GR curve” value was -0.092 GR.

As to `Cc1cc(C(C)Nc2ccccc2)c2nc(N3CCOCC3)cc(=O)n2c1` (stereo unspecified) [TGX221] (max 10 µM), the “area over the GR curve” value in the test with AU565 was 0.103 GR; with BT474, -0.0718 GR; in the test with BT549, 0.0568 GR; with HCC1143, 0.0331 GR; in the test with HCC1395 it was 0.0832 GR; in the test on HCC202 it was -0.0253 GR. For the same compound, the “area over the GR curve” value with MCF10A is 0.005 GR; in the test with PDX1258, -0.0475 GR; with PDXHCI002, -0.0291 GR; with SUM1315 it was 0.136 GR; in the test on SUM190PT it was -0.0619 GR; in the test on SUM44PE, -0.155 GR. Also, the “area over the GR curve” value with UACC812 was found to be 0.523 GR.

Take `CN(C)C/C=C/C(=O)Nc1ccc(C(=O)N2CCC[C@@H](Nc3ncc(Cl)c(-c4c[nH]c5ccccc45)n3)C2)cc1` [THZ531] (max 1 µM): the “area over the GR curve” value in the test on AU565 was determined as 0.42 GR; in the test on BT474, 0.572 GR; with BT549 it was 0.174 GR; with HCC1143 it was 0.266 GR; with HCC1395 it was 0.37 GR; in the test on HCC202 it was 0.3 GR. The “area over the GR curve” value in the test with MCF10A came to 0.162 GR; in the test with PDX1258 it was 0.457 GR; in the test with PDXHCI002 it was 0.352 GR; in the test on SUM1315, 0.148 GR; with SUM190PT, 0.501 GR; in the test with SUM44PE, 0.177 GR. For the same compound, the “area over the GR curve” value in the test with UACC812 came out at 0.0619 GR.

Regarding `CCC(=O)Nc1ccc(C(=O)Nc2ccc(Nc3ncc4c(n3)N(C)c3ccc(C)cc3C(=O)N4C)cc2)cc1` [FMF-03-145-1], the “area over the GR curve” value in the test on AU565 turned out to be 0.501 GR; in the test on BT474, 0.951 GR; in the test with BT549 it was 1.02 GR; with HCC1143, 0.389 GR; in the test with HCC1395 it was 0.52 GR; in the test with HCC202 it was 0.602 GR. Besides, the “area over the GR curve” value with MCF10A turned out to be 1.05 GR; in the test with PDX1258, 1.12 GR; in the test on PDXHCI002, 0.915 GR; in the test with SUM1315, 0.539 GR; in the test with SUM190PT, 0.94 GR; with SUM44PE it was 1.15 GR. In the test with UACC812, the “area over the GR curve” value is 1.04 GR.

Take `CN(C)C/C=C/C(=O)Nc1ccc(O[C@@H]2CCC[C@@H](Nc3ncc(Cl)c(-c4c[nH]c5ccccc45)n3)C2)cc1` [BSJ-01-175] (max 10 µM): the “area over the GR curve” value in the test on AU565 was determined as 1.06 GR; in the test on BT474, 0.826 GR; in the test with BT549 it was 0.433 GR; with HCC1143, 0.684 GR; with HCC1395 it was 1.01 GR; with HCC202, 0.685 GR. Also, the “area over the GR curve” value in the test with MCF10A amounted to 0.3 GR; in the test on PDX1258 it was 1.3 GR; with PDXHCI002, 0.906 GR; with SUM1315, 0.509 GR; in the test on SUM190PT, 1.16 GR; with SUM44PE it was 1.27 GR. The “area over the GR curve” value in the test with UACC812 is 0.571 GR.

Take `CN1CCN(C(=O)c2ccc3cc(CCNc4ncnc5ccc(C#N)cc45)ccc3c2)CC1` [senexin b] (max 10 µM): the “area over the GR curve” value was 0.111 GR in the test on AU565; 0.0613 GR with BT474; 0.181 GR in the test on BT549; 0.22 GR in the test on HCC1143; 0.264 GR in the test on HCC1395; 0.182 GR in the test with HCC202. Also, the “area over the GR curve” value was -0.0308 GR in the test with MCF10A; 0.125 GR in the test on PDX1258; -0.125 GR with PDXHCI002; 0.175 GR with SUM1315; 0.435 GR in the test on SUM190PT; 0.369 GR in the test with SUM44PE. In addition, in the test with UACC812, the “area over the GR curve” value came out at 0.421 GR.

`CC(=O)Nc1cccc(-n2c(=O)n(C3CC3)c(=O)c3c(Nc4ccc(I)cc4F)n(C)c(=O)c(C)c32)c1` (max 1 µM): the “area over the GR curve” value was -0.0244 GR in the test with AU565; -0.316 GR with BT474; 0.129 GR in the test with BT549; 0.538 GR in the test with HCC1143; 0.185 GR in the test with HCC1395; 0.237 GR with HCC202. The “area over the GR curve” value in the test on MCF10A came out at 0.527 GR; with PDX1258 it was 0.0351 GR; in the test on PDXHCI002, 0.2 GR; with SUM1315, 0.389 GR; with SUM190PT, 0.0746 GR; with SUM44PE, 0.186 GR. For the same compound, the “area over the GR curve” value in the test on UACC812 was 0.686 GR.

The values above are taken from the supplement of paper PMC9663587.
